Where “and” joins values, the source holds several entries; their conditions need not be identical. Identical values can stand only once.
Experiments:
Format in all cases: in vivo, human
[1] = test system: ALT, alanine aminotransferase; assay: Observational trial (training set): ALT level of chronic HCV patients under DAA therapy; conditions: one line per patient (Table 3); for ALT level EOT: end of treatment; for ALT level wk 4: week 4 of therapy; for ALT level SVR12: week 12 after end of treatment
Method: (§1) Peripheral blood samples were provided by patients with chronic HCV infection, who were participating in an observational trial (clinicaltrials.gov: NCT02904603) authorized by the local ethics committee. For a training trial, 23 patients (genotype 1a (n=10), 1b (n=9) and 3 (n=4)) were treated with daclatasvir plus sofosbuvir (DCV/SOF; n=15), ledipasvir plus sofosbuvir (LDV/SOF; n=4) or with ritonavir-boosted paritaprevir, ombitasvir, and dasabuvir (n=4).
(§2) A sustained virological response to DAA therapy is generally achieved in 85-99% of chronic HCV patients, depending upon viral genotype, patient-related factors and the choice of treatment regime. In the present study of 23 patients with chronic HCV infection, 22 had achieved a sustained virological response at 12 weeks post-treatment (SVR12). Clearance of virus was associated with improved liver function and reduction in systemic markers of liver inflammation. Although most patients achieved sustained virological responses by 12 weeks, there was considerable variation in time to HCV RNA negativity and normalization of biochemical parameters. Baseline mean HCV RNA titer was 6.12±0.12 log 10 IU/ml, falling to 1.2±0.14 log 10 IU/ml by 4 weeks, at which time 12/23 patients were HCV RNA <12 IU/ml. HCV establishes persistent infections during which virus-specific CD4+ and CD8+ T cells become impaired through progressive functional exhaustion or clonal deletion, and intrahepatic NK cell responses are subdued. […] In particular, this study aimed to identify a minimal set of immunological markers that accurately classified patients with chronic HCV infections as “fast responders” (i.e. HCV RNA <12 IU/ml by 4 weeks) or “slow responders” (i.e. HCV RNA >12 IU/ml at 4 weeks, irrespective of later outcome). These biomarkers were to be independent of viral genotype, baseline fibrosis score, previous HCV treatment, and other patient-related factors. Therefore, the influence of the ALT levels, of the HCV genotype, of a previous treatment for chronic HCV, and the pre-treatment fibrosis score were also analyzed.

[2] = test system: hepatitis C virus (HCV); assay: Observational trial (training set): HCV-RNA / virological response of chronic HCV patients under DAA therapy; conditions: for HCV-RNA EOT / HCV-RNA wk 4 / HCV-RNA SVR12: one line per patient (Table 3); for HCV-RNA EOT: end of treatment; for HCV-RNA wk 4: week 4 of therapy; for HCV-RNA SVR12: week 12 after end of treatment; for Response to DAA Therapy: one line per patient (Table 1, patients 1-23), SVR12 = undetectable HCV-RNA at week 12 after end of treatment, relapse = undetectable at EOT but detectable during follow-up, patients 5, 9 treated 24 weeks, patients 18, 23 treated 8 weeks
Method: The expression “time-to-viral clearance” indicates the period until no HCV RNA detection with currently available detection methods, e.g. as measured by PCR, particularly by quantitative real-time PCR in peripheral blood samples, e.g. in samples of at least 5 ml EDTA blood or whole blood is possible. Using a standard PCR-based test, fewer than 12 copies per milliliter blood is considered to be clinically clear of HCV (Table 3).
as §1, §2

[3] = test system: hepatitis C virus (HCV); assay: Prospective set: HCV-RNA at week 4 of DAA therapy in a further 10 chronic HCV patients; conditions: one line per patient (Table 5, prospective set)
From the text: To verify that the model accurately predicted fast and slow responses, data were collected from a further 10 chronic HCV patients prior to DAA treatment (Table 5). In this “prospective set”, 8 patients were slow responders and 2 were fast responders: all slow responders were correctly classified as such (Table 2D). The model also correctly identified 1 of 2 fast responders. […] For the purpose of prospectively and safely shortening DAA therapy, a test with high specificity is more important than one with high sensitivity.
To verify that the herein disclosed model accurately predicts fast and slow responses, data were collected from a further 10 chronic HCV patients prior to DAA treatment (cf. the Table 5 below).

Substance	ALT level EOT [1]	ALT level wk 4 [1]	ALT level SVR12 [1]	HCV-RNA EOT [2]	HCV-RNA wk 4 [2]	HCV-RNA SVR12 [2]	Response to DAA Therapy wk 4 [3]	Response to DAA Therapy [2]
daclatasvir plus sofosbuvir [SOF + DCV]	44 U/L and 46 U/L and 24 U/L and 45 U/L and 61 U/L and 42 U/L and 30 U/L and 70 U/L and 17 U/L and 23 U/L (2×) and 47 U/L and 22 U/L and 19 U/L and 31 U/L	38 U/L and 42 U/L and 27 U/L and 51 U/L and 47 U/L and 34 U/L (2×) and 25 U/L and 62 U/L and 22 U/L and 31 U/L and 28 U/L and 29 U/L and 24 U/L and 23 U/L	31 U/L and 35 U/L and 21 U/L (3×) and 41 U/L and 37 U/L and 43 U/L and 24 U/L and 62 U/L and 17 U/L and 107 U/L and 25 U/L and 23 U/L and 42 U/L	neg. (7×) and <12 IU/ml (8×)	<12 IU/ml (4×) and neg	neg.	30 IU/ml	
ledipasvir plus sofosbuvir [SOF + LDV]	31 U/L and 64 U/L and 23 U/L and 24 U/L	31 U/L and 74 U/L and 22 U/L and 24 U/L	27 U/L and 32 U/L and 21 U/L and 10 U/L	neg.	<12 IU/ml	neg.	61 IU/ml and <12 IU/ml (2×) and 51 IU/ml and 12 IU/ml (2×) and 14 IU/ml	SVR12
ritonavir-boosted paritaprevir, ombitasvir, and dasabuvir [3D]	21 U/L and 15 U/L and 23 U/L	24 U/L and 17 U/L and 19 U/L	24 U/L and 21 U/L	neg.	neg	neg.		SVR12

Reference: patent US20200158718A1, “A METHOD FOR PREDICTING TIME-TO-VIRAL CLEARANCE IN PATIENTS WITH CHRONIC HEPATITIS C VIRUS (HCV) INFECTION UNDER DIRECT ACTING ANTIVIRAL (DAA) THERAPY” (priority 2017, published 2020)
